Paper PMC11562788, “Insights into the Hierarchical Assembly of a Chemically Diverse Peptide Hydrogel Derived from Human Semenogelin I” (ACS Nano, 2024)
Values after ≈ are worked out from the molar mass of the structure shown. “Also recorded” adds a separate entry of the source. Residues, ends and D or L forms follow the SMILES beside them.

Columns and labels:
Format in all cases: physicochemical
[1] = Stability of P0 gel in solution by MALDI-TOF mass spectrometry; settings: P0 in H2O pH 8.0, chloride salt 1.0 mM and trifluoroacetate salt 0.5 mM, ambient temperature, 2 weeks, MALDI-TOF/TOF MS
Experimental: The identity and purity of all peptides were verified by electrospray or matrix-assisted laser desorption/ionization time-of-flight (MALDI-TOF) mass spectrometry (Bryn Mawr College, PA, at the Chemical Center, Lund University, Lund, Sweden, or at the Laboratory for Biological Mass Spectrometry at Texas A&M University, College Station, TX). Mass spectra were typically acquired using an Autoflex Speed MALDI TOF/TOF mass spectrometer (Bruker Daltonics) in positive reflector mode. A 1 μL peptide sample was mixed with 0.5 μL matrix solution, consisting of 5 mg/ml α-cyano-4-hydroxy cinnamic acid, 80% acetonitrile, and 0.1% TFA, and added to a MALDI stainless steel plate. All spectra were externally calibrated using Peptide Calibration Standard II (Bruker Daltonics) containing 9 internal standard peptides. […]
All samples were prepared in nonstick Eppendorf tubes (Axygen, Inc.). […] The concentration of the peptide solutions was verified with the UV–vis absorbance peak at 280 nm using a molar absorptivity of 2560 M^–1 cm^–1 for all sequences (P0–P7). […]
Figure S16. P0 gel stability was evaluated by MALDI-TOF analysis. […] (A) A sample of P0 in H2O at pH 8.0, chloride salt (1.0 mM) and (B) trifluoroacetate salt (0.5 mM) were prepared for stability and analyzed by MALDI-TOF mass spectrometry. […]
degradation was observed over 2 weeks. […] The calculated mass for P0 [M+H]+ m/z = 1585.72. […]

[2] = Hydrogelation and gel appearance by visual inspection
Experimental: All FTIR measurements were collected on samples where a trifluoroacetate (TFA^–) to chloride ion exchange was performed to eliminate signals from the TFA^– carbonyl moiety in the amide I spectral region (Figure S1). FTIR spectra were collected for P0–P5 in D2O at six pD values (3.0, 5.0, 7.0, 8.0, 9.0, and 10.0) (Figures S2–S7). FTIR analysis for P6–P8 was performed at a pD of 8.0 (Figures S8–S10). The bulk of FTIR studies were performed at pD 8.0, as the optimum pH range for hydrogelation is 7–9 for both SgI38–48[28] and P0.
(§1) All samples were prepared in nonstick Eppendorf tubes (Axygen, Inc.). Prior to the final sample preparation (for all FTIR samples and when otherwise stated), the TFA counteranions present in the peptide sample after HPLC purification were exchanged for chloride using the following protocol: lyophilized peptide was dissolved in deionized D2O (1.0 mL). HCl was added at a molar ratio of 13.7:1 HCl:peptide. For the Phe^CN mutants, the sample was divided into two groups and lyophilized. One sample was then redissolved in H2O (to avoid obscuring the O–D stretches in the nitrile region) and the other in D2O (to avoid overlapping of the O-H bending vibrations in the amide I region) to a final concentration of 2.0 mM, unless otherwise specified. All other peptide samples were redissolved in D2O. The exchange of TFA^– to chloride may be verified by a lack of signal at 1672 cm^–1, seen in the IR spectrum for the deuterium-exchanged TFA salt of P3, where the carbonyl signal from TFA is well separated from the amide I carbonyl high frequency stretch at 1684 cm^–1 (Figure S1). On the day of the peptide sample preparation, D2O was placed in an Eppendorf tube, was then used as background when collecting data points (0 h, 48 h, 1 week, etc.), and was assumed to absorb the same amount of H2O over time as the peptide sample prepared on the same day. The concentration of the peptide solutions was verified with the UV–vis absorbance peak at 280 nm using a molar absorptivity of 2560 M^–1 cm^–1 for all sequences (P0–P7). The pH/pD of the samples was then corrected to 8.0 using small volumes of NaOH and HCl (or NaOD and DCl). After attaining the desired pH/pD, samples were incubated at ambient temperature (ca. 22 °C) and followed over 7 days (or as specified) to allow for hydrogelation.

[3] = SAXS/WAXS of fibrils, elliptical cylinder model fit; settings: for Fibril axis ratio / Fibril cross-sectional area / Fibril minor radius (minor semiaxis): SAXS, elliptical cylinder model fit, 2.0 mM, day 7 at 21 °C
Experimental: Small- and wide-angle X-ray scattering (SAXS/WAXS) measurements were performed on a SAXSLabs Ganesha pinhole instrument (JJ X-ray System Aps) with an X-ray microsource (Xenocs) and a two-dimensional 300k Pilatus detector (Dectris Ltd., Switzerland). The wavelength, λ, used for all scattering experiments was 1.54 Å, and samples were measured at three sample-to-detector distances. All samples (200 μL) were loaded into a 1.5 mm diameter quartz capillary (Hilgenberg GmbH, Malsfeld, Germany), and the time-averaged scattering intensities were analyzed using a python code. The scattering intensity was corrected to an absolute scale by calibration against water. Supramolecular dimensions were extracted from SAXS data by using the SasView software and fitting the scattering curves to an elliptical-cylinder model (www.sasview.org).

[4] = Cryo-TEM of fibril formation and morphology
Experimental: Images were obtained at the National Center for High Resolution Electron Microscopy within Lund University on a JEOL JEM-2200 transmission electron microscopy instrument using a TVIPS F416 camera with an accelerator voltage of 200 kV. […] Grids were glow-discharged prior to sample preparation. Image processing was performed on the open-source software ImageJ (https://imagej.nih.gov) with the FIJI processing package.

[5] = FTIR amide I: β-sheet self-assembly; settings: D2O, pD 8.0, 2.0 mM (P7, P8 and F40FCN 1.0 mM), ambient temperature
Experimental: as §1
FT IR was performed with a Bruker Vertex 70 spectrometer with a photovoltaic mercury cadmium telluride (MTC) detector. Before the spectral collection, the MCT detector was cooled with liquid nitrogen. A background spectrum (see hydrogel sample preparation above) was collected (6 μL of H2O or D2O), and the collection chamber was purged for 15 min before 6 μL of sample was loaded in between two CaF2 windows and separated by a 50-μm Teflon spacer in a 25-mm diameter demountable liquid cell (Harrick Scientific). After purging again, the IR spectrum was collected with 512 scans, with a resolution of 2 cm^–1, from 900 cm^–1 to 4000 cm^–1 at time t = 0 h, 24 h, 48 h, and 1 week (and sometimes longer) after sample constitution, processed using OPUS spectroscopy software, and plotted with Origin or KaleidaGraph.

[6] = Solubility in water

Compound	Degradation in solution [1]	Optimum pH range for hydrogelation ([2]; P0)	Hydrogel formation on pH adjustment ([2]; P0 in H2O at pH 8.0, chloride salt 1.0 mM and trifluoroacetate salt 0.5 mM)	Gel appearance over time (clear or cloudy / precipitate) ([2]; visual inspection, 2.0 mM in D2O, pD 8.0, ambient temperature, 24 h to 6 days)	Fibril axis ratio ([3]; pH 8.0)	Fibril cross-sectional area ([3]; pH 8.0)	Fibril minor radius (minor semiaxis) ([3]; pH 8.0)	Diameter of fibril bundle (cryo-TEM) ([4]; after 7 days of incubation at 21 °C, bundle of approximately 5 fibrils)	Colloidal stability / phase separation of the hydrogel ([2]; visual inspection after hydrogel preparation, pH/pD 8.0, 2.0 mM, ambient temperature)	Repeat distance of sharp SAXS peak at q = 0.305 Å^–1 ([3]; after 1 day of incubation at 21 °C)	Presence of fibrils (cryo-TEM) ([4]; pH 8.0 water, 2.0 mM (P7 1.0 mM), incubation at 21 °C)	Hydrogel formation ([2]; visual inspection, peptide in water/D2O, pH/pD 8.0, 2.0 mM (P7 1.0 mM), ambient temperature ca. 22 °C, up to 7 days)	β-Sheet secondary structure (self-assembly) by FTIR amide I [5]	Solubility in water (in words) ([6]; P7 and P8 not tested above 1.0 mM at pH 8)	solubility ([6]; pH 8.0, read-out: Solubility limit in water)	Fibril formation by SAXS scattering ([3]; 2.0 mM P0–P6, 1.0 mM P7, 7 days at 21 °C, pH 8.0)
CC[C@H](C)[C@H](NC(=O)[C@H](CO)NC(=O)[C@H](Cc1ccccc1)NC(=O)[C@H](CO)NC(=O)CNC(=O)[C@H](CCCCN)NC(C)=O)C(=O)N[C@@H](CCC(N)=O)C(=O)N[C@@H](Cc1ccc(O)cc1)C(=O)N[C@H](C(=O)N[C@@H](Cc1ccc(O)cc1)C(=O)N[C@@H](Cc1c[nH]cn1)C(=O)N[C@H](C(=O)N[C@@H](CC(=O)O)C(N)=O)C(C)C)[C@@H](C)O [P0] (Ac-KGSFSIQYTYHVD-NH2)	No appreciable, if any; also recorded: No degradation	7–9	soft gel immediately formed	usually yields a clear gel upon preparation but occasionally turns cloudy	2.8	14.9 nm^2	1.3 nm									
CC[C@H](C)[C@H](NC(C)=O)C(=O)N[C@@H](CCC(N)=O)C(=O)N[C@@H](Cc1ccc(O)cc1)C(=O)N[C@H](C(=O)N[C@@H](Cc1ccc(O)cc1)C(=O)N[C@@H](Cc1c[nH]cn1)C(=O)N[C@H](C(=O)N[C@@H](CC(=O)O)C(N)=O)C(C)C)[C@@H](C)O [P5] (Ac-IQYTYHVD-NH2)					1.9	65.0 nm^2	3.3 nm	~10 nm	colloidally unstable and undergoes phase separation	2.1 nm						
CC(=O)N[C@@H](Cc1ccc(O)cc1)C(=O)N[C@H](C(=O)N[C@@H](Cc1ccc(O)cc1)C(=O)N[C@@H](Cc1c[nH]cn1)C(=O)N[C@H](C(=O)N[C@@H](CC(=O)O)C(N)=O)C(C)C)[C@@H](C)O [P7] (Ac-YTYHVD-NH2)											contains no fibrils	inability of P7 to form a hydrogel	no sign of a β-sheet secondary structure; also recorded: unstructured	low solubility	1000 µM (≈ 838 µg/mL)	no significant scattering is observed
